Reference: patent publication US8507219B2, “Method of treating inflammation with statins” (MUSC Foundation for Research Development, priority 1997, dated 2013)

Tests used:
[1] = tested on: intracellular GSH in rat primary astrocytes; experiment: Intracellular GSH / GSSG in rat primary astrocytes; type: cell-based; details: 10 mM NAC 1 h; TNF-α or IL-1β 50 ng/ml; diamide 0.5 mM
Description: Measurement of reduced glutathione (GSH) concentration in rat primary astrocytes Concentration of intracellular GSH was measured using a colorimetric assay kit for GSH from RandD, USA. Briefly, 2×10^6 cells were homogenized in 500 μl of ice-cold 5% metaphosphoric acid and centrifuged at 3000 g for 10 min. Supernatants were used to assay GSH using 4-chloro-1-methyl-7-trifluoromethyl-quinolinium methylsulfate and 30% NaOH at 400 nm.
Measurement of GSH (Reduced Glutathione) and GSSG Oxidized Glutathione Concentration of intracellular reduced GSH was measured using a calorimetric assay kit for GSH from R & D Systems. Briefly, 2×10^6 cells were homogenized in 500 μl of ice-cold 5% metaphosphoric acid and centrifuged at 3000×g for 10 min. Supernatants were used to assay GSH using 4-chloro-1-methyl-7-trifluoromethylquinolinium methylsulfate and 30% NaOH at 400 nm. Concentration of GSSG was determined according to the method of Griffith (1980) after derivatization with 2-vinylpyridine for 30 min at room temperature.

[2] = tested on: ceramide production in rat primary astrocytes; experiment: Degradation of sphingomyelin to ceramide (DAG kinase assay, HPTLC) in rat primary astrocytes; type: cell-based
Description: Lipid extraction Approximately 1.0×10^6 cells were exposed to different cytokines in the presence or absence of antioxidants for different periods and lipids were extracted according to the methods described by Welsh (1996).
Quantification of sphingomyelin by HPTLC and densitometry Sphingomyelin was separated from total lipid extracts by HPTLC (LPK-plates from Whatman Labsales, USA) as described (Ganser et al., 1988) for phospholipids with the modification, that the plate was overrun for 30 min during its development and was dried overnight in vacuum desicator. Sphingomyelin was quantitated by densitometric scanning using Imaging Densitometer (Model GS-670; Bio-Rad, USA) and software provided with the instrument by the manufacturer.
Quantification of ceramide levels by diacylglycerol kinase assay Ceramide content was quantified essentially according to Priess et al. using diacylglycerol (DAG) kinase and [γ-^32P]ATP (Priess et al., 1986). Briefly, dried lipids were solubilized in 20 μl of an octyl β-D-glucoside/cardiolipin solution (7.5% octyl β-D-glucoside, 5 mM cardiolipin in 1 mM DTPA) by sonication in a sonicator bath. […] The labeled ceramide 1-phosphate was resolved with a solvent system consisting of methyl acetate: n-propanol:chloroform:methanol:0.25% KCl in water:acetic-acid (100:100:100:40:36:2). A standard sample of ceramide was phosphorylated under identical conditions and developed in parallel. […] Quantification of ceramide 1-phosphate was carried out by autoradiography and densitometric scanning using Imaging Densitometer (Model GS-670; Bio-Rad, USA). Values are expressed either as arbitrary units (absorbance) or as percent change.
Lipid Extraction Approximately 1.0×10^6 cells were exposed to different cytokines in the presence or absence of antioxidants for different periods, and lipids were extracted according to the methods described by Welsh (1996).
Quantification of Sphingomyelin by High Performance TLC and Densitometry Sphingomyelin was separated from total lipid extracts by high performance TLC (LHPK plates from Whatman) as described by Ganser et al. (1988) for phospholipids with the following modification: the plate was overrun for 30 min during its development and was dried overnight in vacuum desiccator. Sphingomyelin was quantitated by densitometric scanning using Imaging Densitometer (model GS-670; Bio-Rad), and software was provided with the instrument by the manufacturer.
Quantification of Ceramide Levels by Diacylglycerol Kinase Assay Ceramide content was quantified essentially according to Priess et al. (1986) using diacylglycerol (DAG) kinase and [γ-^32P]ATP. Briefly, dried lipids were solubilized in 20 μl of an octyl β-D-glucoside/cardiolipin solution (7.5% octyl β-D-glucoside, 5 mM cardiolipin in 1 mM DTPA) by sonication in a sonicator bath. […] The labeled ceramide-1-phosphate was resolved with a solvent system consisting of methyl acetate:n-propyl alcohol:chloroform:methanol, 0.25% KCl in water:acetic acid (100:100:100:40:36:2). A standard sample of ceramide was phosphorylated under identical conditions and developed in parallel. […] Quantification of ceramide-1-phosphate was carried out by autoradiography and densitometric scanning using Imaging Densitometer (model GS-670; Bio-Rad). Values are expressed either as arbitrary units (absorbance) or as percent change.

[3] = tested on: rat primary oligodendrocytes; experiment: Apoptosis (DNA fragmentation, laddering) in rat primary oligodendrocytes; type: cell-based; details: 10 mM NAC 1 h; diamide 0.5 mM, TNF-α 50 ng/ml or C2-ceramide; 12 h
Description: Detection of DNA fragmentation Cells (1×10^6) were pelleted in an eppendorf tube by centrifugation at 1,000 rpm for 5 min, washed with PBS (pH 7.4), resuspended gently in 50 μl of a lysis buffer [200 mM NaCl, 10 mM Tris-HCl (pH 8.0), 40 mM EDTA (pH 8.0), 0.5% SDS, 400 ng RNase A/μl] and incubated at 37° C. for 1 h. The lysate received 200 μl of the digestion buffer [200 mM NaCl, 10 mM Tris-HCl (pH 8.0), 0.5% SDS, 125 ng proteinase K/μl]. The contents were mixed by inversion several times and then incubated at 50° C. for 2 h. An equal volume of a mixture phenol (pH 8.0), chloroform and isoamyl alcohol (25:24:1, v/v) was added, gently mixed for 10 min, and stored at room temperature for 2 min. […] The gel was stained with ethidium bromide and DNA-intercalated ethidium fluorescence was photographed on Polaroid film 665 (P/N) using an orange filter. […]
Detection of DNA Fragmentation Cells (1×10^6) were pelleted in an Eppendorf tube by centrifugation at 1000 rpm for 5 min, washed with phosphate-buffered saline, pH 7.4, resuspended gently in 50 μl of a lysis buffer (200 mM NaCl, 10 mM Tris-HCl, pH 8.0, 40 mM EDTA, pH 8.0, 0.5% SDS, 400 ng of RNase A/μl), and incubated at 37° C. for 1 h. […] The gel was stained with ethidium bromide, and DNA-intercalated ethidium fluorescence was photographed on Polaroid film 665 (P/N) using an orange filter. […]

[4] = X-ALD patients; cited from earlier work

SMILES	intracellular level of GSH / GSSG [1]	increase in ceramide production [2]	ceramide formation and DNA fragmentation / apoptosis [3]	reduction of VLCFA [4] [%]
CN(C)C(=O)/N=N/C(=O)N(C)C [diamide]	increased the intracellular level of GSSG	about 7 fold	induced internucleosomal DNA fragmentation	
CCCCCCCC/C=C\CCCCCCCC(=O)OCC(COC(=O)CCCCCCC/C=C\CCCCCCCC)OC(=O)CCCCCCC/C=C\CCCCCCCC [trioleate]				50
